Experimental data: patent US20250362286A1, “SCREENING MODELS AND METHODS OF CANCER TREATMENT” (The Regents of the University of California, priority 2022, published 2025)

Assays:
Notch pathway genes = test: RT-qPCR gene expression analysis of Notch target genes in MDAs; type: cell-based; conditions: 24h in HD Col1, vs vehicle
Text: Also assessed was how the Notch pathway responded to ISX9 treatment. […] FIG. 3A depicts the results of a RT-qPCR gene expression analysis of Notch target genes in vehicle and Isx9 treated MDAs.

Notch1 = test: immunofluorescence staining of cleaved intracellular domain of Notch1 in MDAs; type: cell-based; conditions: vs vehicle, even in 2D culture
Text: FIG. 3B depicts immunofluorescence staining of cell nuclei and cleaved intracellular domain of Notch1 in vehicle and Isx9 treated MDAs.

MDAs [1] = test: flow cytometry of CD44+/CD24- CSC population in MDAs; type: cell-based
Text: To further assess differentiation status, RT-PCR and flow cytometry (FC) was used to quantify expression of the CSC stemness biomarker signature CD44^+/CD24^− in MDAs. At the population level, MDAs increased CD24 mRNA expression ˜14-fold with ISX9 treatment after 7 days (FIG. 3E). FIG. 3E depicts RT-qPCR of CD24 expression in MD As treated with vehicle or ISX9. […] (FIG. 3F, FIG. 3G). FIG. 3F and FIG. 3G depicts flow cytometry analysis of MDAs treated with vehicle or ISX9.
Cells in 2D tissue culture and HD Collagen I were treated with ISX9 daily for 7 days, dissociated and flow-sorted. […] These figures depict fluorescence profiles of CD44/CD24 in MDAs treated with vehicle or ISX9 for 7 days in (FIG. 4A) 2D TC or (FIG. 4B) HD Col1. FIG. 4C depicts a flow cytometry analysis of CD44^+/CD24^− MDA cells treated with vehicle or ISX9.

MDA-MB-436 = test: CD24 mRNA expression in 2D for 48h; type: cell-based
Experimental: (§1) FIG. 3H depicts relative CD24 mRNA expression. CD24 expression was an early indicator of response to ISX9 in 2D across several TNBC cell lines. Treatment screening of several different TNBC cell lines with ISX9 in 2D for 48h yielded four responders, as determined by CD24 mRNA expression (FIG. 3H).

SUM149 = test: CD24 mRNA expression in 2D for 48h; type: cell-based
Experimental: as §1

MDAs [2] = test: flow cytometry of CDH1+ MDA cells in 2D and 3D Collagen I densities; type: cell-based
Experimental: To determine whether induction of MET was specific to the HD Collagen I condition or generally applicable to all ISX9-treated cells in a 3D Collagen condition, CDH1^+ cells in 2D, and multiple 3D Collagen I densities were flow-sorted (1 mg/mL, 2.5 mg/mL, and 6 mg/mL Col1) (FIG. 4F, FIG. 4G).) FIG. 4F depicts fluorescence profiles of CDH1 in MDAs treated with vehicle or ISX9 for 7 days in 2D TC, LD Col1, MD Col1, or HD Col1 conditions. FIG. 4G depicts a flow cytometry analysis of CDH1^+ MDA cells treated with vehicle or ISX9 in 2D TC, LD Col1, MD Col1, or HD Col1.

MDAs [3] = test: chemo-susceptibility to doxorubicin after pre-treatment, MTS assay; type: cell-based; conditions: 7d pre-treatment in HD Col1, then chemotherapy 3d; normalized to vehicle control
Experimental: To determine whether ISX9 could be used in a similar therapeutic function, MDAs and R40P cells were treated with vehicle or ISX9 for 7d in HD Col1, followed by chemotherapy for 3d and MTS assay to quantify viable cells.

MDAs [4] = test: CellTiter-Fluor metabolic activity assay; type: cell-based; conditions: 2D, 10-40 μM
Text: FIG. 7C depicts the metabolic activity, cytotoxicity, and relative CD24 expression dose-response to ISX9.

PA-14-13 PDOs [5] = test: RT-qPCR of CD24 and CDH1 expression in PDOs; type: cell-based; conditions: 20 μM, 48 h
Experimental: (§2) As a first step towards assessing the efficacy of ISX9 to differentiate patient-derived tumor cells, PDOs from the PIM025 (“hybrid epithelial” EMT status) and PA14-13 (“hybrid mesenchymal” EMT status) TNBC PDX tumors were produced and treated with 20 μM ISX9 for 48 h. […] FIG. 8D and FIG. 8E depict RT-qPCR of CD24 and CDH1 expression in PIM025 PDOs and PA-14-13 PDOs, respectively.

PIM025 PDOs = test: RT-qPCR of CD24 and CDH1 expression in PDOs; type: cell-based; conditions: 20 μM, 48 h
Experimental: as §2

PA-14-13 PDOs [6] = test: FACS analysis of CD44+/CD24- CSCs and CDH1+ cells in PDOs; type: cell-based
Text: (§3) These figures depict flow cytometry analysis of CD44*/CD24 CSC in (FIG. 8F and FIG. 8G) PIM025 PDOs and (FIG. 8H and FIG. 8I) PA-14-13 PDOs treated with vehicle or ISX9.
(§4) FIG. 8J and FIG. 8K depict a flow cytometry analysis of CDH1^+ cells in PIM025 PDOs treated with vehicle or ISX9. FIG. 8L and FIG. 8M depict a flow cytometry analysis of CDH1^+ cells in PA-14-13 PDOs treated with vehicle or ISX9.

PIM-025 PDOs = test: as above; type: cell-based
Text: as §3, §4

MDA-MB-231 cells = test: western blot of acetylation of histones H3 and H4; type: cell-based; conditions: 2D- and 3D-treated cells, 24 hours
Text: (§5) Also identified was the fact that a similar increase in acetylation was found in patient-derived organoid models. […] Acetylation and deactylation of histones H3 and H4 are typically orchestrated by Histone Acetyltransferases (HATs), including the several HAT subfamilies, as well as HDACs (see, e.g., Marmorstein, R. et al. Cold Spring Harb. Perspect. Biol. 6, a018762 (2014)). Not wishing to be bound by any particular theory, Isx9 may bind directly to HATs and/or HDACs in order to activate histone acetylation and drive induction of MET and/or CSC differentiation.

PA-14-13 = test: western blot of acetylated H3/H4 in PDOs; type: cell-based; conditions: patient-derived organoid model
Text: as §5

PIM025 = test: western blot of acetylated H3/H4 in PDOs; type: cell-based; conditions: patient-derived organoid model
Text: as §5

MDA-MB-231 = test: B-Catenin localization to cell-cell junctions; type: cell-based; conditions: 48 hours, 2D-treated cells
[7] = system: Notch-activated epicardium-derived cells (NECs); conditions: after myocardial infarction; cited from earlier work

Compound: O=C(NC1CC1)c1cc(-c2cccs2)on1 [ISX9, Isoxazole 9]
- expression of Notch pathway genes (Notch pathway genes): significantly increased
- localization of activated Notch1 (cleaved intracellular domain) (Notch1): strong nucleolar localization
- population of CD44+/CD24- CSCs (MDAs [1]; 2D and HD Collagen I, treated daily for 7 days): reducing the population of CD44^+/CD24^− CSCs to a similar degree
- CD44+/CD24- cells, share of the population (MDAs [1]; with treatment, vehicle ˜100%): ~67%
- CD24 mRNA expression (FC) (MDA-MB-436): ~7.1
- CD24 mRNA expression (FC) (SUM149): ~2.7
- CDH1+ induction (MDAs [2]; 1 mg/mL and 2.5 mg/mL Col1, 7 days): unable to re-express CDH1^+to similar levels
- effect on CDH1+ cells (MDAs [2]; 2D, 7 days): small effect
- population of CDH1+ cells (MDAs [2]; HD (6 mg/mL) Col1, 7 days): highest population of CDH1^+ cells
- decrease in IC50 to doxorubicin (MDAs [3]): ~14.5 fold
- metabolic activity (MDAs [4]): decrease in metabolic activity
- upregulation of CD24 (PA-14-13 PDOs [5]): ~1,080 fold
- upregulation of CDH1 (PA-14-13 PDOs [5]): ~41 fold
- CDH1 mRNA expression (PIM025 PDOs): slight increase
- upregulation of CD24 mRNA transcription (PIM025 PDOs): 1.5 fold
- CD44+/CD24- CSCs (FACS) (PA-14-13 PDOs [6]; after 6 days of treatment): reduction in CD44+/CD24− CSCs
- CDH1+ cells (FACS) (PA-14-13 PDOs [6]; vs vehicle): enrichment in CDH1^+ cells
- CD44+/CD24- CSCs (FACS) (PIM-025 PDOs; after 6 days of treatment): reduction in CD44+/CD24− CSCs
- CDH1+ cells (FACS) (PIM-025 PDOs; vs vehicle): slight reduction in CDH1^+ cells
- acetylation of histones H3 and H4 (MDA-MB-231 cells): significant increase in acetylation of histones H3 and H4
- acetylated H3/H4 expression (PA-14-13): large increase in acetylated H3/H4 expression
- acetylated H3/H4 expression (PIM025): slight increase in acetylated H3/H4 expression
- B-Catenin localization to cell-cell junctions (MDA-MB-231): significant increase in B-Catenin localization
- fibrosis and ventricular functional decline after MI [7]: failed to mitigate fibrosis or avert ventricular functional decline after MI
